The values that follow come from ChEMBL document CHEMBL4316623, “Phosphonodiamidate prodrugs of N-alkoxy analogs of a fosmidomycin surrogate as antimalarial and antitubercular agents” (Bioorg Med Chem Lett, 2019).

Data set [1] can be described thus: Oral bioavailability in human. It counts as ADME, organism-based. The following applies: in vivo.
The nature of data set [2]: Half life in human at 500 mg, po. It counts as ADME. The following applies: in vivo.
Data set [3] in a line: Cytotoxicity against human MRC5 cells assessed as reduction in cell viability measured after 24 hrs by resazurin dye based fluorimetric assay. (Alamar Blue is a resazurin reagent that responds to reducing activity.)
A further data set concerns Plasmodium falciparum. Nature of the data set: Antimalarial activity against Chloroquine-resistant Plasmodium falciparum K1 measured after 72 hrs by malstat/NBT dye based assay. It counts as functional, organism-based. The settings on record: K1, 72 h.
A short description of data set [4]: Selectivity index, ratio of CC50 for human MRC5 cells to IC50 for Chloroquine-resistant Plasmodium falciparum K1. In kind it is toxicity. The following applies: read-out: Ratio CC50/IC50.
Data set [5] has as its system Mycobacterium tuberculosis. Nature of the data set: Antitubercular activity against Mycobacterium tuberculosis H37Rv up to 50 uM measured after 7 days by resazurin dye based colometric microtiter assay. It counts as functional, organism-based.

A word on the bioavailability: it is dose-corrected exposure relative to a reference, in per cent. Low values mean little systemic uptake, high ones much systemic uptake. One may read the half-life as how long it takes for the measured level to halve. A high value points to slow decline. In general, CC50 refers to the concentration at which the toxic effect on the cells reaches its halfway point. What is called pIC50 is the negative decadic logarithm of the IC50, by convention in mol/L. Lower therefore signals a large IC50.

pIC50: −log10 of the molar value. Active and inactive are the calls of the source. The calls are words filed in the database; no cut-off is given here.

For the compound `O=CN(O)CCCP(=O)([O-])O.[Na+]` [FOSMIDOMYCIN SODIUM], the bioavailability in data set [1] lay in the range of 20 to 40%. In addition, the half-life in data set [2] was 1.87 h.
Turning to `CCOC(=O)[C@H](CC(C)C)NP(=O)(CCCC(=O)N(C)OCc1ccccc1)N[C@@H](CC(C)C)C(=O)OCC`, the 50% cytotoxic concentration (CC50) at 24 h in data set [3] is above 64 µM. In the data set on Plasmodium falciparum, this compound had a pIC50 of 5.37. Besides, in data set [4], the selectivity ratio is above 15. For the same compound, the result in data set [5] was inactive.
Turning to `CCOC(=O)[C@H](CC(C)C)NP(=O)(CCCC(=O)N(C)OCc1ccc2ccccc2c1)N[C@@H](CC(C)C)C(=O)OCC`, in data set [3], the CC50 at 24 h was 5.47 µM. The same compound had a pIC50 in the data set with Plasmodium falciparum of 5.21. Moreover, the selectivity ratio in data set [4] came to 0.88. For the same compound, the outcome in data set [5] was inactive.
Taken in the same sequence, the figures for `CCOC(=O)[C@H](CC(C)C)NP(=O)(CCCC(=O)N(C)OCc1ccc(C(C)C)cc1)N[C@@H](CC(C)C)C(=O)OCC` were 7.22 µM, 5.28, 1.4 and “inactive”.
Taken in the same sequence, the figures for `CCOC(=O)[C@H](CC(C)C)NP(=O)(CCCC(=O)N(C)O)N[C@@H](CC(C)C)C(=O)OCC` were above 64 µM, 5.32, above 20 and “inactive”.
Take `CCOC(=O)[C@H](CC(C)C)NP(=O)(CCCC(=O)N(C)OCc1ccc(Cl)cc1)N[C@@H](CC(C)C)C(=O)OCC`: the CC50 at 24 h in data set [3] is 18.4 µM. Further, the pIC50 in the data set with Plasmodium falciparum was 5.15. In addition, the selectivity ratio in data set [4] worked out at 2.6. In addition, the result in data set [5] was inactive.
Taken in the same sequence, the figures for `CCOC(=O)[C@H](CC(C)C)NP(=O)(CCCC(=O)N(C)OCCCCc1ccccc1)N[C@@H](CC(C)C)C(=O)OCC` were 7.23 µM, 5.17, 1.1 and “inactive”.
Taken in the same sequence, the figures for `CCOC(=O)[C@H](CC(C)C)NP(=O)(CCCC(=O)N(C)OCc1ccc(-c2ccccc2)cc1)N[C@@H](CC(C)C)C(=O)OCC` were 5.94 µM, 5.28, 1.1 and “inactive”.
The like results for `CCOC(=O)[C@H](CC(C)C)NP(=O)(CCCC(=O)N(C)OCCCc1ccccc1)N[C@@H](CC(C)C)C(=O)OCC` were, in that order, 23.1 µM, 5.05, 2.6 and “inactive”.
